In patent US20240182407A1, “QUINOLINE COMPOUND SALT OR CRYSTAL FORM, PREPARATION METHOD THEREFOR, AND APPLICATION THEREOF” (Nanjing Zenshine Pharmaceuticals Co., Ltd., priority 2021, published 2024):
“And” between values parts separate entries of the source, which are not always exact repeats. Identical values can stand only once. Like-named read-outs stand apart in the source and are kept apart here.

Columns and labels:
PI3Kδ = target: T1, PI3Kδ (Homo sapiens, UniProt O00329); test: Akt phosphorylation in Raji cells stimulated by IgM (AlphaLISA); details: phosphorylation of Akt, read-out: IC50 PI3Kδ Cell-based
T1 construct: host or cells: Raji cells
Method: (§1) In addition, taking Sample 6 as an example, the inhibitory effects thereof on PI3Kα, PI3Kβ, PI3Kγ and PI3Kδ in corresponding cells were determined. The activity of PI3Kα was detected by the phosphorylation level of Akt in C2Cl2 cells stimulated by IGF-1, the activity of PI3Kβ was detected by the phosphorylation level of Akt in PC-3 cells stimulated by LPA, the activity of PI3Kγ was detected by the phosphorylation level of Akt in Raw264.7 cells stimulated by c5α, and the activity of PI3Kδ was detected by the phosphorylation level of Akt in Raji cells stimulated by IgM. The phosphorylation level of Akt in cells was determined by means of AlphaLISA technique from PerkinElemer.
(§2) The C2C12 cells, PC-3 cells, Raw264.7 cells and Raji cells were all purchased from ATCC.

SU-DHL-4 = test: Proliferation of lymphoma cell line in vitro, SU-DHL-4; format: cell-based; details: Homo sapiens, read-out: absolute IC50 (AbsIC50), proliferation
[1] = Crystal form stability under high humidity (XRPD); format: physicochemical; details: RT/92.5% RH, 11 days
Description: (§3) In addition, the stability of p-toluenesulfonate crystal form I (Sample 8) under grinding and high humidity conditions was investigated.
For example, the p-toluenesulfonate crystal form I sample was placed at RT/92.5% RH for 11 days and then measured by XRPD.

WSU-DLCL-2 = test: Proliferation of lymphoma cell line in vitro, WSU-DLCL-2; format: cell-based; details: Homo sapiens, WSUDLCL2, read-out: absolute IC50 (AbsIC50), proliferation
[2] = Crystal form stability under grinding (XRPD); format: physicochemical; details: ground in a mortar for 2 min
Method: as §3
A certain amount of p-toluenesulfonate crystal form I was ground in a mortar for 2 min and then measured by XRPD.

PI3Kγ (p110γ) = target: T2, PI3Kγ (p110γ) (Homo sapiens, UniProt P48736); test: ADP-Glo kinase inhibition, PI3Kγ; details: read-out: IC50 PI3Kγ Biochemical
T2 construct: purchased Invitrogen PR8641C
Method: (§4) In Example 7, the inhibitory effects of Sample 6 prepared in Example 6 above on kinases PI3Kα, PI3Kβ, PI3Kγ and PI3Kδ were tested.
(§5) The kinases used in the experiment were respectively purchased from: • PI3Kα (p110α/p85α), purchased from Invitrogen, under Cat. No. PV4788; • PI3Kβ (p110β), purchased from eurofins, under Cat. No. 14-603M; • PI3Kδ (p110δ/p85a), purchased from Invitrogen, under Cat. No. PV6452; and • PI3Kγ (p110γ), purchased from Invitrogen, under Cat. No. PR8641C. • Firstly, a 1× kinase buffer solution was prepared, which comprised: • 50 mM HEPES, pH 7.5 • 3 mM MgCl2 • 1 mM EGTA • 100 mM NaCl • 0.03% CHAPS • 2 mM DTT
On kinases PI3Kα, PI3Kβ and PI3Kγ, the final detection concentration of the compound was 10 μM. 100× concentration was prepared, i.e., 1000 μM. 90 μL of 100% DMSO was added to the second well in row A on a 96-well plate, 10 μL of a 10 mM compound solution was then added, and 3-fold serial dilution was made to obtain a total of 10 concentrations.
(§6) 50 μL of 100% DMSO was transferred to two empty wells as Max well and Min well, respectively.
50 nL of the compound was transferred into a 384-well plate using ECHO550.
Preparation of 2× kinase solution: the kinase was added to a 1× kinase buffer to prepare a 2× enzyme solution. […]
(§7) Finally, the chemiluminescence values were read from Envision 2104 Multi-label Reader and subjected to curve fitting, and IC50 was calculated.

DoHH-2 = test: Proliferation of lymphoma cell line in vitro, DoHH-2; format: cell-based; details: Homo sapiens, read-out: absolute IC50 (AbsIC50), proliferation
[3] = tested on: mouse colorectal cancer CT26. WT cell; test: Mouse colorectal cancer CT26. WT cell subcutaneous transplantation tumor model; format: in vivo
Description: WT cell subcutaneous transplantation tumor model.

[4] = Solubility in organic solvents; format: physicochemical; details: organic solvent or mixture
Description: Therefore, these two solvents were taken, for example, as good solvents and subjected to anti-solvent precipitation experiments.

PI3Kγ = target: T3, PI3Kγ (Mus musculus, UniProt Q9JHG7); test: Akt phosphorylation in Raw264.7 cells stimulated by c5α (AlphaLISA); details: phosphorylation of Akt, read-out: IC50 PI3Kγ Cell-based
T3 construct: host or cells: Raw264.7 cells
Method: as §1, §2

PI3Kδ (p110δ/p85a) = target: T4, PI3Kδ (p110δ/p85a) (Homo sapiens, UniProt O00329); test: ADP-Glo kinase inhibition, PI3Kδ; details: read-out: IC50 PI3Kδ Biochemical
T4 construct: purchased Invitrogen PV6452
Method: as §4, §5
On kinase PI3Kδ, the final detection concentration of the compound was 1 μM. 100× concentration was prepared, i.e., 100 μM. 90 μL of 100% DMSO was added to the second well in row B on a 96-well plate, 10 μL of a 1000 μM compound solution was then taken from the second well in row A, and 3-fold serial dilution was made to obtain a total of 10 concentrations.
as §6
50 nL of the compound was transferred into a 384-well plate using ECHO550. […]
as §7

[5] = Solid stability, 40° C./75% RH and 60° C., one week (HPLC purity, XRPD); format: physicochemical
Method: Appropriate amounts of Compound A and p-toluenesulfonate of Compound A (Sample 5, crystal form I) were respectively placed in 40° C./75% RH and 60° C. environments for one week to determine solid stability. At days 0 and 7, HPLC purity analysis and solid XRPD determination were carried out, and some of the results were as shown in Table 7.

T2 sequence (P48736 whole entry): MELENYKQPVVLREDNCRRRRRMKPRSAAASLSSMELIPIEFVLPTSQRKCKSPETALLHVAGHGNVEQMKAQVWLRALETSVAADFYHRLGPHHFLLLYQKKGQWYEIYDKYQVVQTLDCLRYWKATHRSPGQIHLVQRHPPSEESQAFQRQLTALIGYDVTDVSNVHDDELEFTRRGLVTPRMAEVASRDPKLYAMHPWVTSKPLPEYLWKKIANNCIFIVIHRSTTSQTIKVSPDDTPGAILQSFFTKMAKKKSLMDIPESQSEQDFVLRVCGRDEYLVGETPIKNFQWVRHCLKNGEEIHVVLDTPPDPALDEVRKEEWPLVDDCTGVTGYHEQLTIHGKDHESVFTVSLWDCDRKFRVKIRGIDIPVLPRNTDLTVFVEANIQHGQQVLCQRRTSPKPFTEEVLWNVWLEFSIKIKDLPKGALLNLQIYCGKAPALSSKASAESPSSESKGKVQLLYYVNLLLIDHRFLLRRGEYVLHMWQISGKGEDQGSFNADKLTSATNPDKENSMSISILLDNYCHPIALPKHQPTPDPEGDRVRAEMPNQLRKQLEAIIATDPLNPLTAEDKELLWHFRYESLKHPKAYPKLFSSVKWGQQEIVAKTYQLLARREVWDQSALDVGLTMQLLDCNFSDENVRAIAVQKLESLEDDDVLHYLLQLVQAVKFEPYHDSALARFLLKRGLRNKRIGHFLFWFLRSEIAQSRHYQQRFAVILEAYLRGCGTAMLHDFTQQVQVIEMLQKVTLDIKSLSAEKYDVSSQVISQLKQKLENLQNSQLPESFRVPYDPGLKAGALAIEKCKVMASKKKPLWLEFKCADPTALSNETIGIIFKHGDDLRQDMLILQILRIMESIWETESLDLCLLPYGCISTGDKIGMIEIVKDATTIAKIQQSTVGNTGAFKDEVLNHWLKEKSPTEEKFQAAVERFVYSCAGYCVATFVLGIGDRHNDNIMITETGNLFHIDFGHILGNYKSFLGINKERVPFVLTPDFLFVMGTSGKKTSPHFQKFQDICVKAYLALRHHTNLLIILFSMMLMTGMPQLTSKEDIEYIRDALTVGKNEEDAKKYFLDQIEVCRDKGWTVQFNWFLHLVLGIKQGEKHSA
T3 sequence (Q9JHG7 whole entry): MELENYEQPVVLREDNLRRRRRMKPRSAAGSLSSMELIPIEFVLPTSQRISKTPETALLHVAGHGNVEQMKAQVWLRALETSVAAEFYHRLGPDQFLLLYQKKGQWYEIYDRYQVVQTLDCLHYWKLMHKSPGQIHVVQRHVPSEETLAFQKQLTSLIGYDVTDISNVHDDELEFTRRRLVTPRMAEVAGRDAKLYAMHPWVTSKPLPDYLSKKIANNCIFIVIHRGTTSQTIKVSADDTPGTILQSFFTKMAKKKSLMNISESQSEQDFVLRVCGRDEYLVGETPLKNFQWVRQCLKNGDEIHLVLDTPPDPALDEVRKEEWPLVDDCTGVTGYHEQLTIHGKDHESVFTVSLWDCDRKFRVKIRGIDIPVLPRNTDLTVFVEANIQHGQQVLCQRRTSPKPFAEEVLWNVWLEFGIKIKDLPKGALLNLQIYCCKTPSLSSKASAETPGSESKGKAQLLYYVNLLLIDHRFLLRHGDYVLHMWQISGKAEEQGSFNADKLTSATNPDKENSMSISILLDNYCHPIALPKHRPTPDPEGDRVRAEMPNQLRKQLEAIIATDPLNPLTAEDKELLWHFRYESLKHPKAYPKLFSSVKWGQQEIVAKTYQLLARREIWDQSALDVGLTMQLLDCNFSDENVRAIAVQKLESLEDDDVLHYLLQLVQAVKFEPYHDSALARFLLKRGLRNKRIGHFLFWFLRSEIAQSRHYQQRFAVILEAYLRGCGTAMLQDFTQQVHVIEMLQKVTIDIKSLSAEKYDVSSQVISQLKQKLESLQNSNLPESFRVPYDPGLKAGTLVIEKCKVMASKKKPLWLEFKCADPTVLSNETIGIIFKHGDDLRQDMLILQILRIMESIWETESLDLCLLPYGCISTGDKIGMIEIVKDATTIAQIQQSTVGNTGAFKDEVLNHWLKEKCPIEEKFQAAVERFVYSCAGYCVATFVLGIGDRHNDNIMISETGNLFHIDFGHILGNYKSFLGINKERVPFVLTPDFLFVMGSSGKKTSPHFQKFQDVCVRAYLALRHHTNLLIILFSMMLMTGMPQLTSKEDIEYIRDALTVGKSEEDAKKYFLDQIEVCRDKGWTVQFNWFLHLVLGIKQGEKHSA
T4 sequence (O00329 whole entry): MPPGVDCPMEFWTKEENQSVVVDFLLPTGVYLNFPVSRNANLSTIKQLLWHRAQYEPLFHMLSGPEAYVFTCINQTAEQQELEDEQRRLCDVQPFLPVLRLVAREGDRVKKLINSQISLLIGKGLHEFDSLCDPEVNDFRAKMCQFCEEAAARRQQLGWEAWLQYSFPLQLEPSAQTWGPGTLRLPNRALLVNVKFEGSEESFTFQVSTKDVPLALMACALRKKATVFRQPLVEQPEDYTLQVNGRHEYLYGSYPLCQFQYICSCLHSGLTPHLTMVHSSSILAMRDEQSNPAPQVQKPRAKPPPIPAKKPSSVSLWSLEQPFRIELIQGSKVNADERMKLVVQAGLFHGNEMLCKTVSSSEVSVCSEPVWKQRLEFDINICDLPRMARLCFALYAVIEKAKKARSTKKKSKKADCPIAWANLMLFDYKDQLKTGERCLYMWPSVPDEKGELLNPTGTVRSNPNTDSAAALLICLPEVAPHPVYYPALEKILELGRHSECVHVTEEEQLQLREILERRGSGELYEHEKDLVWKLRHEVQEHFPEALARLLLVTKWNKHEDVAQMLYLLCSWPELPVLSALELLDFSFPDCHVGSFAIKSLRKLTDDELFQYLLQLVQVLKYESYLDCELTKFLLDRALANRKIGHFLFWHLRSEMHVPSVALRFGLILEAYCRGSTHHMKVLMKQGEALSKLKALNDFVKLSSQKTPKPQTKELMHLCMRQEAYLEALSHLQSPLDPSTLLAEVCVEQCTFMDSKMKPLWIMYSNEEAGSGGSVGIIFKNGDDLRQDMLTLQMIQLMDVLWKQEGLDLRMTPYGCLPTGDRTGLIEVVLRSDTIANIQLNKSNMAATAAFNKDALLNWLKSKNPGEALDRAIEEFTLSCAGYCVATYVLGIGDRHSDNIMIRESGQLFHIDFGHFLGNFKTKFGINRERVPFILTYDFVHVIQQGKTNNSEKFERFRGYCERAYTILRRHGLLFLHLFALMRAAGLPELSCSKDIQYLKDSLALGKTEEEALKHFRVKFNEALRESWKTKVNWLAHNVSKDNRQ
T4 sequence (P27986 whole entry partner): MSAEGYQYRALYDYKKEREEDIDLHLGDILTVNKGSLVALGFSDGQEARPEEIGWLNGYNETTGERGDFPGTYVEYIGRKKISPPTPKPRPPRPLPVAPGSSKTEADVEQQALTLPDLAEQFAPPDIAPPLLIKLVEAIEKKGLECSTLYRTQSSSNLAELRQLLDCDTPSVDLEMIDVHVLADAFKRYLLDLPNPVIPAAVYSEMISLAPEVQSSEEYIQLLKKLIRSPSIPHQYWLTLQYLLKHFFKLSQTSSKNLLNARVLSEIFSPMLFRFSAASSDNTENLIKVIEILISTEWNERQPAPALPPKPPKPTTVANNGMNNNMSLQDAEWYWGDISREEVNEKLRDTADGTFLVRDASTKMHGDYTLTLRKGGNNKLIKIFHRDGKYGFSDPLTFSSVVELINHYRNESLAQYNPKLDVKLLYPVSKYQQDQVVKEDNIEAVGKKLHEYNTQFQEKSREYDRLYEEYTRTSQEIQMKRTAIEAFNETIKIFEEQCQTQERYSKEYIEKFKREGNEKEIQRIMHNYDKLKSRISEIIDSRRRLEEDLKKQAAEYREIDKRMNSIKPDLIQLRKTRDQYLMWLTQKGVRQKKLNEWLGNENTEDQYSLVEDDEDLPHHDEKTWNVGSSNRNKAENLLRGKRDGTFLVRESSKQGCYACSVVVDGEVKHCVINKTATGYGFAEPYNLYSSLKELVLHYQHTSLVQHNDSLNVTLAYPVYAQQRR
T1 sequence (O00329 whole entry): as the sequence (O00329 whole entry) above
T1 sequence (P27986 whole entry partner): as the sequence (P27986 whole entry partner) above

## C[C@H](Nc1nc(N)nc(N)c1C#N)c1cc2ccc(F)cc2nc1-c1ccccn1 [p-toluenesulfonate of Compound A]
PI3Kδ
  IC50: 0.95 nM
SU-DHL-4
  IC50: < 100 nM
[1]
  crystal form after high humidity (XRPD): crystal form of the sample did not change
WSU-DLCL-2
  IC50: < 100 nM
[2]
  crystal form after grinding (XRPD): still p-toluenesulfonate crystal form I
PI3Kγ (p110γ)
  IC50: 4.8 nM
DoHH-2
  IC50: < 100 nM
[3]
  effect on tumor volume growth: significant inhibitory effect
[4]; methanol, read-out: solubility in methanol
  Solubility: > 24 mg/mL
[4]; tetrahydrofuran, read-out: solubility in tetrahydrofuran
  Solubility: > 11.6 mg/mL
PI3Kγ
  IC50: 29 nM
PI3Kδ (p110δ/p85a)
  IC50: 0.49 nM
[5]; 40° C./75% RH and 60° C., 7 days
  physical and chemical stability (purity and crystal form): no change in purity and crystal form
[5]; solid, 40° C./75% RH, 7 d, average, listed as Sample 5
  Purity (peak area %) Average - 40° C./75% RH - 7 d: 99.69 peak area %
[5]; solid, 40° C./75% RH, 7 d, single determinations, listed as Sample 5
  Purity (peak area %) 40° C./75% RH - 7 d: 99.68 peak area % and 99.69 peak area %
[5]; solid, 60° C., 7 d, average, listed as Sample 5
  Purity (peak area %) Average - 60° C. - 7 d: 99.65 peak area %
[5]; solid, 60° C., 7 d, single determinations, listed as Sample 5
  Purity (peak area %) 60° C. - 7 d: 99.56 peak area % and 99.74 peak area %
[5]; solid, day 0, average, listed as Sample 5
  Purity (peak area %) Average - 0 d: 99.48 peak area %
[5]; solid, day 0, single determinations, listed as Sample 5
  Purity (peak area %) 0 d: 99.46 peak area % and 99.49 peak area %
